Legend:
Aβ42 = test: In vivo efficacy Method 2: brain soluble Aβ42 by ELISA; parameters: species or system mouse; details: Table 4b, single oral dose, overnight fasted non-transgenic animals, sacrificed after 4 h, soluble fraction of brain homogenates
Excerpt: (§1) To determine whether acute administration of an Aβ42 lowering agent would reduce Aβ42 levels in vivo, non-transgenic rodents, e.g. mice or rats were used. Animals treated with the Aβ42 lowering agent were examined and compared to those untreated or treated with vehicle and brain levels of soluble Aβ42 and total Aβ were quantitated by standard techniques, for example, using ELISA. Treatment periods varied from hours (h) to days and were adjusted based on the results of the Aβ42 lowering once a time course of onset of effect could be established.
(§2) A typical protocol for measuring Aβ42 lowering in vivo is shown but it is only one of many variations that could be used to optimize the levels of detectable Aβ. For example, Aβ42 lowering compounds were formulated in 20% of Captisol® (a sulfobutyl ether of β-cyclodextrin) in water or 20% hydroxypropyl β cyclodextrin. The Aβ42 lowering agents were administered as a single oral dose or by any acceptable route of administration to overnight fasted animals. After 4 h, the animals were sacrificed and Aβ42 levels were analysed.
(§3) Blood was collected by decapitation and exsanguinations in EDTA-treated collection tubes. Blood was centrifuged at 1900 g for 10 minutes (min) at 4° C. and the plasma recovered and flash frozen for later analysis. The brain was removed from the cranium and hindbrain. The cerebellum was removed and the left and right hemisphere were separated. The left hemisphere was stored at −18° C. for quantitative analysis of test compound levels. The right hemisphere was rinsed with phosphate-buffered saline (PBS) buffer and immediately frozen on dry ice and stored at −80° C. until homogenization for biochemical assays.
(§4) Mouse brains from non-transgenic animals were resuspended in 8 volumes of 0.4% DEA (diethylamine)/50 mM NaCl containing protease inhibitors (Roche-11873580001 or 04693159001) per gram of tissue, e.g. for 0.158 g brain, add 1.264 ml of 0.4% DEA. All samples were homogenized in the FastPrep-24 system (MP Biomedicals) using lysing matrix D (MPBio #6913-100) at 6 m/s for 20 seconds. Homogenates were centrifuged at 221.300×g for 50 min. The resulting high speed supernatants were then transferred to fresh eppendorf tubes. Nine parts of supernatant were neutralized with 1 part 0.5 M Tris-HCl pH 6.8 and used to quantify Aβtotal and Aβ42.
(§5) To quantify the amount of Aβtotal and Aβ42 in the soluble fraction of the brain homogenates, Enzyme-Linked-Immunosorbent-Assays were used . Briefly, the standards (a dilution of synthetic Aβ1-40 and Aβ1-42, Bachem) were prepared in 1.5 ml Eppendorf tube in Ultraculture, with final concentrations ranging from 10000 to 0.3 pg/ml. The samples and standards were co-incubated with HRPO-labelled N-terminal antibody for Aβ42 detection and with the biotinylated mid-domain antibody 4G8 for Aβtotal detection. 50 μl of conjugate/sample or conjugate/standards mixtures were then added to the antibody-coated plate (the capture antibodies selectively recognize the C-terminal end of Aβ42, antibody JRF/cAβ42/26, for Aβ42 detection and the N-terminus of Aβ, antibody JRF/rAβ/2, for Aβtotal detection). The plate was allowed to incubate overnight at 4° C. in order to allow formation of the antibody-amyloid complex. Following this incubation and subsequent wash steps the ELISA for Aβ42 quantification was finished by addition of Quanta Blu fluorogenic peroxidase substrate according to the manufacturer's instructions (Pierce Corp., Rockford, Ill.). A reading was performed after 10 to 15 min (excitation 320/emission 420).
In this model at least 20% Aβ42 lowering compared to untreated animals would be advantageous.

Aβtotal = test: In vivo efficacy Method 2: brain soluble Aβtotal by ELISA; parameters: species or system mouse; details: Table 4b, single oral dose, overnight fasted non-transgenic animals, sacrificed after 4 h, soluble fraction of brain homogenates
Excerpt: as §1, §2, §3, §4, §5
For Aβtotal detection, a Streptavidine-Peroxidase-Conjugate was added, followed 60 min later by an additional wash step and addition of Quanta Blu fluorogenic peroxidase substrate according to the manufacturer's instructions (Pierce Corp., Rockford, Ill.). A reading was performed after 10 to 15 min (excitation 320 nm/emission 420 nm).

SMILES | Aβ42 (% Ctrl) _Mean (Aβ42) [% Ctrl] | Aβtotal (% Ctrl) _Mean (Aβtotal) [% Ctrl]
COc1nc(Nc2cccc3c2nc(-c2ccc(F)cc2)n3C)ccc1-n1cnc(C)c1 [Compound 15] | 39 | 82
COc1cc(Nc2cc(C(C)C)nc3c2nc(-c2ccc(F)cc2)n3C)ccc1-n1cnc(C)n1 [Compound 110] | 78 | 106
